We go through 36 molecules from patent US6835726B2, “Pyrimidine derivatives” (priority 1998, dated 2004).

Each structure is given as a SMILES string.

This assay deals with recombinant human cytomegalovirus (HCMV). Briefly: microbe, parasite or virus in culture. In kind it is cell-based. Conditions: CMV assay, Table 2; read-out: Antiviral Activity. From the text:
Certain preferred compounds and compositions are capable of specifically inhibiting or suppressing cytomegalovirus infection. For the assessment of activity against human CMV, a method was used which is similar to that described in Kohler, et al., J. Virol. 68:6589-6597 (1994). Briefly, a recombinant human cytomegalovirus (HCMV) was made containing a marker gene (luciferase) under the control of the promoter for the late 28 kDa viral structural phosphoprotein pp28. Human foreskin fibroblast (HFF) cells were infected with the recombinant HCMV virus (MOI 5), placed into 96-well plates, and cultured under standard cell-culture conditions. Compounds that were evaluated for anti-HCMV activity were added to the infected cells 1 hour later. The level of luciferase expression was measured 24 hours after treatment with the test compounds. […] As an additional control, the cytotoxicity of test compounds on untreated HFF cells was also evaluated in cultured cell growth experiments.
`Cc1nc(NCc2c(F)cccc2Cl)nc(-n2ccnc2C)c1[N+](=O)[O-]`: the IC50 lay in the range of 100 to 500 nM.

Regarding `CCc1nccn1-c1nc(NCc2ccc(F)cc2Cl)nc(C)c1[N+](=O)[O-]`, the IC50 lay within 100 to 500 nM.

On to `Cc1nc(NCc2ccc(F)cc2C(F)(F)F)nc(-n2ccnc2C)c1[N+](=O)[O-]`, for which the IC50 was 100 to 500 nM. For `CCc1nccn1-c1nc(NCc2ccc(F)cc2C(F)(F)F)nc(C)c1[N+](=O)[O-]` the value was 100 to 500 nM; for `Cc1nc(NCc2ccc(F)cc2Cl)nc(-n2ccnc2C)c1[N+](=O)[O-]`, 100 to 500 nM. With `Cc1nc(NCc2cc(Cl)cc(Cl)c2)nc(-n2ccnc2C)c1[N+](=O)[O-]`, the IC50 fell in the range of 100 to 500 nM.

Take `Cc1nc(NCc2ccc(F)c(C(F)(F)F)c2)nc(-n2ccnc2C)c1[N+](=O)[O-]`: the IC50 is less than 100 nM. For `Cc1nc(NCc2cc(F)cc(F)c2)nc(-n2ccnc2C)c1[N+](=O)[O-]` the value was less than 100 nM; for `Cc1nc(NCc2ccccc2OC(F)(F)F)nc(-n2ccnc2C)c1[N+](=O)[O-]`, 100 to 500 nM; for `Cc1nc(NCc2cc(F)cc(F)c2)nc(-n2ccnc2)c1[N+](=O)[O-]`, more than 500 nM. For `Cc1nc(NCc2ccc(F)cc2)nc(-n2ccnc2C)c1[N+](=O)[O-]` the value was 100 to 500 nM; for `Cc1nc(NCc2ccc(Cl)c(Cl)c2)nc(-n2ccnc2C)c1[N+](=O)[O-]`, 100 to 500 nM.

Take `Cc1nc(NCc2cccc(Cl)c2)nc(-n2ccnc2C)c1[N+](=O)[O-]`: the IC50 is less than 100 nM. As to `Cc1nc(NCc2ccc(Cl)cc2)nc(-n2ccnc2C)c1[N+](=O)[O-]`, the IC50 lay in the range of 100 to 500 nM.

In the case of `Cc1nc(NCc2cccc(C(F)(F)F)c2)nc(-n2ccnc2C)c1[N+](=O)[O-]`, the IC50 was less than 100 nM.

In the case of `Cc1ccc(CNc2nc(C)c([N+](=O)[O-])c(-n3ccnc3C)n2)cc1`, the IC50 was more than 500 nM. Take `Cc1nc(NCc2ccccc2Cl)nc(-n2ccnc2C)c1[N+](=O)[O-]`: the IC50 was less than 100 nM. For `Cc1nc(NCc2cc(C(F)(F)F)cc(C(F)(F)F)c2)nc(-n2ccnc2C)c1[N+](=O)[O-]`, the IC50 is more than 500 nM. For `Cc1nc(NCc2cc(Cl)ccc2Cl)nc(-n2ccnc2C)c1[N+](=O)[O-]` the value was less than 100 nM.

Consider `Cc1nc(NCc2cccc(Cl)c2Cl)nc(-n2ccnc2C)c1[N+](=O)[O-]`, for which the IC50 fell in the range of 100 to 500 nM.

On to `Cc1cccc(CNc2nc(C)c([N+](=O)[O-])c(-n3ccnc3C)n2)c1`, for which the IC50 fell in the range of 100 to 500 nM. For `Cc1nc(NCc2cccc(Br)c2)nc(-n2ccnc2C)c1[N+](=O)[O-]` the value was less than 100 nM; for `Cc1nc(NCc2cccc(F)c2)nc(-n2ccnc2C)c1[N+](=O)[O-]`, 100 to 500 nM. Under `COc1cccc(CNc2nc(C)c([N+](=O)[O-])c(-n3ccnc3C)n2)c1` stands 100 to 500 nM; under `Cc1nc(NCc2cccnc2)nc(-n2ccnc2C)c1[N+](=O)[O-]`, more than 500 nM. `Cc1nc(NCc2ccccn2)nc(-n2ccnc2C)c1[N+](=O)[O-]`: the IC50 was 100 to 500 nM. Under `COc1ccc(CNc2nc(C)c([N+](=O)[O-])c(-n3ccnc3C)n2)cc1OC` stands 100 to 500 nM; under `Cc1nc(NCc2cc(F)c(F)c(F)c2)nc(-n2ccnc2C)c1[N+](=O)[O-]`, 100 to 500 nM; under `Cc1nc(NCc2c(F)ccc(F)c2F)nc(-n2ccnc2C)c1[N+](=O)[O-]`, 100 to 500 nM.

With `Cc1nc(NCc2cc(F)cc(F)c2F)nc(-n2ccnc2C)c1[N+](=O)[O-]`, the IC50 lay in the range of 100 to 500 nM. Under `Cc1nc(NCc2ccc(F)c(F)c2F)nc(-n2ccnc2C)c1[N+](=O)[O-]` stands 100 to 500 nM; under `Cc1nc(NCc2ccc(F)c(F)c2)nc(-n2ccnc2C)c1[N+](=O)[O-]`, 100 to 500 nM; under `Cc1nc(NCc2cc(C(F)(F)F)ccc2F)nc(-n2ccnc2C)c1[N+](=O)[O-]`, less than 100 nM. With `Cc1cccc(Cl)c1CNc1nc(C)c([N+](=O)[O-])c(-n2ccnc2C)n1`, the IC50 was 100 to 500 nM.

Turning to `Cc1ccccc1CNc1nc(C)c([N+](=O)[O-])c(-n2ccnc2)n1`, the IC50 is more than 500 nM. Regarding `Cc1ccccc1CNc1nc(C)c([N+](=O)[O-])c(-n2ccnc2C)n1`, the IC50 is 100 to 500 nM.
